In patent publication US7928102B2, “Irradiated compositions and treatment of cancers with radiation in combination with taurolidine and/or taurultam” (Ed. Geistlich Soehne AG fuer Chemische Industrie, priority 2006, dated 2011):
Read-outs that look alike come from different tables or passages of the source.

Tests used:
[1] = Gamma irradiation of aqueous 1% taurolidine solution, radiolysis products; format: physicochemical; conditions: approx. 25 gKy, aqueous 1% solution in 500 ml glass bottles; for content after γ-irradiation of a 1% taurolidine solution: IR, HPLC/MS, amino acid analysis
Procedure: Examination of an aqueous 1% taurolidine solution for radiolysis products. After γ-irradiation (approx. 25 gKy) of a 1% taurolidine solution contained in 500 ml glass bottles the following products can be isolated, or quantitatively determined by means of IR spectroscopy, HPLC/MS analysis, amino acid analysis: […]

COS-7 Fibroblasts [2] = tested on: COS-7 Fibroblasts
Procedure: (§1) For this, two different categories of cells (muscle cells and fibroblasts) were incubated with three different concentrations of the two test substances for different periods of time. A possible toxic effect of the test substances on the cells was analyzed 20 hours later. The measures to determine possible cell damage were viability and level of cell adhesion.
(§2) The COS-7 and C2C12 cell lines were plated at 50% confluence on 48 well dishes, and incubated for 24 hours at 37°. Then the media were changed. To this, either unmodified medium (control), or medium containing 0.1%, 0.25% or 0.5% taurultam or dehydrotaurultam was used. The cell cultures were incubated at 37° for 5, 10, 20, 60 and 120 minutes, and then washed three times with fresh medium. After a further 20 hours in the incubator at 37°, the cells were evaluated.
(§3) As a measure of viability, the extent of cell adhesion was evaluated microscopically.
(§4) Cell adhesion was analyzed after 20 hours of incubation with taurultam and dehydrotaurultam respectively.
(§5) Fibroblasts were incubated with taurultam or dehydrotaurultam (0.1%, 0.25%, 0.5%) for 5, 10, 20, 60 and 120 minutes at 37°. After rinsing them three times with a regular medium, the cultures were incubated for another 20 h. Then the extent of adhesion of the cells was examined microscopically.

[3] = tested on: C2C12 Muscle Myoblast Cells; conditions: mouse
Procedure: (§6) In the present report, the acute toxicity of dehydrotaurultam was evaluated compared to taurultam. For this, two different categories of cells (muscle cells and fibroblasts) were incubated with three different concentrations of the two test substances for different periods of time. A possible toxic effect of the test substances on the cells was analyzed 20 hours later. The measures to determine possible cell damage were viability and level of cell adhesion.
as §2, §3, §4
(§7) Muscle cells were incubated with taurultam or dehydrotaurultam (0.1%, 0.25%, 0.5%) for 5, 10, 20, 60 and 120 minutes at 37°. After rinsing them three times with a regular medium, the cultures were incubated for another 20 h. Then the extent of cells adhesion was examined microscopically.

[4] = tested on: C2C12 Muscle Myoblast Cells; test: Acute toxicity: cell adhesion evaluated microscopically; conditions: for Adhesion of C2C12 Muscle Myoblast Cells: then 20 h, % of control cultures
Procedure: as §6, §2, §3, §4, §7

COS-7 Fibroblasts [5] = test: as above; conditions: for Adhesion of COS-7 Fibroblasts: then 20 h, % of control cultures
Procedure: as §1, §2, §3, §4, §5

## O=C=O [CO2]
[1]
  amount after γ-irradiation of a 1% taurolidine solution: 9.7 mg
  content after γ-irradiation of a 1% taurolidine solution: 0.0019%

## O=S1(=O)CCN=CN1 [dehydrotaurultam]
COS-7 Fibroblasts [2]
  cell adhesion, fibroblasts: not detected
COS-7 Fibroblasts [2]; African green monkey, 0.25 %
  cell adhesion, fibroblasts: 80%
COS-7 Fibroblasts [2]; African green monkey, 5 min, 0.1 %
  Adhesion of COS-7 Fibroblasts: 100%
COS-7 Fibroblasts [2]; African green monkey, 5 min, 0.25 %
  Adhesion of COS-7 Fibroblasts: 100%
COS-7 Fibroblasts [2]; African green monkey, 5 min, 0.5 %
  Adhesion of COS-7 Fibroblasts: 100%
COS-7 Fibroblasts [2]; African green monkey, 10 min, 0.1 %
  Adhesion of COS-7 Fibroblasts: 100%
COS-7 Fibroblasts [2]; African green monkey, 10 min, 0.25 %
  Adhesion of COS-7 Fibroblasts: 100%
COS-7 Fibroblasts [2]; African green monkey, 10 min, 0.5 %
  Adhesion of COS-7 Fibroblasts: 95%
COS-7 Fibroblasts [2]; African green monkey, 20 min, 0.1 %
  Adhesion of COS-7 Fibroblasts: 100%
COS-7 Fibroblasts [2]; African green monkey, 20 min, 0.25 %
  Adhesion of COS-7 Fibroblasts: 90%
COS-7 Fibroblasts [2]; African green monkey, 20 min, 0.5 %
  Adhesion of COS-7 Fibroblasts: 90%
COS-7 Fibroblasts [2]; African green monkey, 60 min, 0.1 %
  Adhesion of COS-7 Fibroblasts: 100%
COS-7 Fibroblasts [2]; African green monkey, 60 min, 0.25 %
  Adhesion of COS-7 Fibroblasts: 90%
COS-7 Fibroblasts [2]; African green monkey, 60 min, 0.5 %
  Adhesion of COS-7 Fibroblasts: 80%
COS-7 Fibroblasts [2]; African green monkey, 120 min, 0.1 %
  Adhesion of COS-7 Fibroblasts: 90%
COS-7 Fibroblasts [2]; African green monkey, 120 min, 0.25 %
  Adhesion of COS-7 Fibroblasts: 80%
COS-7 Fibroblasts [2]; African green monkey, 120 min, 0.5 %
  Adhesion of COS-7 Fibroblasts: 80%
[1]
  amount after γ-irradiation of a 1% taurolidine solution: 780 mg
  content after γ-irradiation of a 1% taurolidine solution: 0.156%
[3]; 0.25 %
  cell adhesion, muscle cells: 80%
[3]; 0.5 %
  cell adhesion, muscle cells: 80-90%
[3]; 5 min, 0.1 %
  Adhesion of C2C12 Muscle Myoblast Cells: 100%
[3]; 5 min, 0.25 %
  Adhesion of C2C12 Muscle Myoblast Cells: 100%
[3]; 5 min, 0.5 %
  Adhesion of C2C12 Muscle Myoblast Cells: 100%
[3]; 10 min, 0.1 %
  Adhesion of C2C12 Muscle Myoblast Cells: 100%
[3]; 10 min, 0.25 %
  Adhesion of C2C12 Muscle Myoblast Cells: 100%
[3]; 10 min, 0.5 %
  Adhesion of C2C12 Muscle Myoblast Cells: 100%
[3]; 20 min, 0.1 %
  Adhesion of C2C12 Muscle Myoblast Cells: 100%
[3]; 20 min, 0.25 %
  Adhesion of C2C12 Muscle Myoblast Cells: 90%
[3]; 20 min, 0.5 %
  Adhesion of C2C12 Muscle Myoblast Cells: 90%
[3]; 60 min, 0.1 %
  Adhesion of C2C12 Muscle Myoblast Cells: 100%
[3]; 60 min, 0.25 %
  Adhesion of C2C12 Muscle Myoblast Cells: 80%
[3]; 60 min, 0.5 %
  Adhesion of C2C12 Muscle Myoblast Cells: 90%
[3]; 2 h
  cell adhesion, muscle cells: 80-90%
[3]; 120 min, 0.1 %
  Adhesion of C2C12 Muscle Myoblast Cells: 90%
[3]; 120 min, 0.25 %
  Adhesion of C2C12 Muscle Myoblast Cells: 80%
[3]; 120 min, 0.5 %
  Adhesion of C2C12 Muscle Myoblast Cells: 80%

## OCO [methylene glycol]
[1]
  amount after γ-irradiation of a 1% taurolidine solution: 81 mg
  content after γ-irradiation of a 1% taurolidine solution: 0.0160%

## NCCS(N)(=O)=O [taurinamide]
[1]
  amount after γ-irradiation of a 1% taurolidine solution: 85.5 mg
  content after γ-irradiation of a 1% taurolidine solution: 0.0171%

## NCCS(=O)(=O)O [taurine]
[1]
  amount after γ-irradiation of a 1% taurolidine solution: 53 mg
  content after γ-irradiation of a 1% taurolidine solution: 0.0106%

## O=S1(=O)CCNCN1 [taurultam]
[4]; 0.1%, incubation 5 min
  Adhesion of C2C12 Muscle Myoblast Cells: 100%
[4]; 0.1%, incubation 5 min, listed as Taurultam
  Adhesion of C2C12 Muscle Myoblast Cells: 100%
[4]; 0.1%, incubation 10 min
  Adhesion of C2C12 Muscle Myoblast Cells: 100%
[4]; 0.1%, incubation 10 min, listed as Taurultam
  Adhesion of C2C12 Muscle Myoblast Cells: 100%
[4]; 0.1%, incubation 20 min
  Adhesion of C2C12 Muscle Myoblast Cells: 100%
[4]; 0.1%, incubation 20 min, listed as Taurultam
  Adhesion of C2C12 Muscle Myoblast Cells: 100%
[4]; 0.1%, incubation 60 min
  Adhesion of C2C12 Muscle Myoblast Cells: 90%
[4]; 0.1%, incubation 120 min
  Adhesion of C2C12 Muscle Myoblast Cells: 60%
[4]; 0.1%, incubation 120 min, listed as Taurultam
  Adhesion of C2C12 Muscle Myoblast Cells: 60%
[4]; 0.25%, incubation 5 min
  Adhesion of C2C12 Muscle Myoblast Cells: 100%
[4]; 0.25%, incubation 10 min
  Adhesion of C2C12 Muscle Myoblast Cells: 95%
[4]; 0.25%, incubation 20 min
  Adhesion of C2C12 Muscle Myoblast Cells: 90%
[4]; 0.25%, incubation 60 min
  Adhesion of C2C12 Muscle Myoblast Cells: 70%
[4]; 0.25%, incubation 120 min
  Adhesion of C2C12 Muscle Myoblast Cells: 60%
[4]; 0.25%, incubation periods of 60 and 120 minutes
  cell adhesion, muscle cells: 60-70%
[4]; 0.5%, incubation 5 min
  Adhesion of C2C12 Muscle Myoblast Cells: 95%
[4]; 0.5%, incubation 10 min
  Adhesion of C2C12 Muscle Myoblast Cells: 90%
[4]; 0.5%, incubation 20 min
  Adhesion of C2C12 Muscle Myoblast Cells: 90%
[4]; 0.5%, incubation 60 min
  Adhesion of C2C12 Muscle Myoblast Cells: 60%
[4]; 0.5%, incubation 120 min
  Adhesion of C2C12 Muscle Myoblast Cells: 50%
[4]; 0.5%, incubation periods of 60-120 minutes
  cell adhesion, muscle cells: 50-60%
[4]; all concentrations (0.1-0.5%), 2-hour incubation period
  cell adhesion, muscle cells: 50-60%
COS-7 Fibroblasts [5]; 0.1%, incubation 5 min
  Adhesion of COS-7 Fibroblasts: 100%
COS-7 Fibroblasts [5]; 0.1%, incubation 10 min
  Adhesion of COS-7 Fibroblasts: 100%
COS-7 Fibroblasts [5]; 0.1%, incubation 20 min
  Adhesion of COS-7 Fibroblasts: 90%
COS-7 Fibroblasts [5]; 0.1%, incubation 60 min
  Adhesion of COS-7 Fibroblasts: 80%
COS-7 Fibroblasts [5]; 0.1%, incubation 120 min
  Adhesion of COS-7 Fibroblasts: 70%
COS-7 Fibroblasts [5]; 0.1%, more extended incubation periods (60 and 120 minutes)
  cell adhesion, fibroblasts: limited adhesion was observed
COS-7 Fibroblasts [5]; 0.25%, incubation 5 min
  Adhesion of COS-7 Fibroblasts: 95%
COS-7 Fibroblasts [5]; 0.25%, incubation 10 min
  Adhesion of COS-7 Fibroblasts: 90%
COS-7 Fibroblasts [5]; 0.25%, incubation 20 min
  Adhesion of COS-7 Fibroblasts: 60%
COS-7 Fibroblasts [5]; 0.25%, incubation 60 min
  Adhesion of COS-7 Fibroblasts: 60%
COS-7 Fibroblasts [5]; 0.25%, incubation 120 min
  Adhesion of COS-7 Fibroblasts: 70%
COS-7 Fibroblasts [5]; 0.25%, incubation period of at least 20 minutes
  cell adhesion, fibroblasts: 60%
COS-7 Fibroblasts [5]; 0.5%, incubation 5 min
  Adhesion of COS-7 Fibroblasts: 95%
COS-7 Fibroblasts [5]; 0.5%, incubation 10 min
  Adhesion of COS-7 Fibroblasts: 90%
COS-7 Fibroblasts [5]; 0.5%, incubation 20 min
  Adhesion of COS-7 Fibroblasts: 70%
COS-7 Fibroblasts [5]; 0.5%, incubation 60 min
  Adhesion of COS-7 Fibroblasts: 60%
COS-7 Fibroblasts [5]; 0.5%, incubation 120 min
  Adhesion of COS-7 Fibroblasts: 40%
COS-7 Fibroblasts [5]; 0.5%, more extended incubation periods (beyond 10 minutes)
  cell adhesion, fibroblasts: ≥ 40%
COS-7 Fibroblasts [5]; most extreme conditions (0.5%, 1-2 h)
  cell adhesion, fibroblasts: 40-60%
